Entries after “also recorded” stand apart in the source; their conditions may differ.

In one assay the test system is preformed clot. Put plainly: Thrombolysis of a preformed carotid clot in rats (reperfusion, patency, reocclusion). The note with it: for effectiveness in preventing thrombosis in this rat model: 0.3 mg/kg i.v., free acids. It is filed as in vivo. Here is the method:
(§1) Rabbits were anesthetized with ketamine (50 mg/kg i.m.) and xylazine (10 mg/kg i.m.) and then surgically prepared with arterial and venous catheters. An electromagnetic flow probe was placed on a segment of an isolated carotid artery to monitor blood flow. Thrombus formation was induced by electrical stimulation of the carotid artery for 3 min at 4 mA using an external stainless-steel bipolar electrode. Carotid blood flow was measured continuously over a 90-min period to monitor thrombus occlusion. Test agents were infused intravenously 1 hour prior to the electrical stimulation of the carotid artery and continuously during the 90-min period.
Experiments were conducted in rats anesthetized with ketamine (110 mg/kg i.m.) and xylazine (10 mg/kg i.m.). The protocol is similar to the rabbit protocol as described above in Example 1 except that the free acid of a compound of the formula (B): [drawing 11]
or the free acid of sibrafiban and/or TPA were given 5 min after a preformed clot was formed. The measured parameters were time to reperfusion, duration of patency and incidence of reocclusion. The doses of TPA, sibrafiban and compound B used were 1, 0.3 and 0.3 mg/kg i.v., respectively.

Assay [1] relates to carotid artery thrombus formation. Put plainly: Electrically induced carotid artery thrombosis, carotid blood flow (rabbit model of arterial thrombosis). It is filed as in vivo. The note with it: i.v. infusion from 1 hour before and during 90 min after electrical stimulation, aspirin 1 mg/kg/hr, Compound (A) 0.03 mg/kg/hr, Fragmin 60 U/kg/hr. The method, then: as §1
Assay [2] deals with clot formation in human whole blood. Put plainly: Computerized thromboelastography (TEG): mediator-induced clot formation under shear in whole blood. Format: cell-based. The note with it: for enhancement of clot strength by platelets: TF-accelerated clot formation. The method, then: Clot formation was monitored at 37° C. in an oscillating plastic cylindrical cuvette (“cup”) and a coaxially suspended stationary piston (“pin”) with a 1 mm clearance between the surfaces, using a computerized Thrombelastograph (CTEG Model 3000, Haemoscope, Skokie, IL). The cup oscillates 4°45′ ( 1/12 radian) in either direction every 4.5 seconds, with a 1 second mid-cycle stationary period; resulting in a frequency of 0.1 Hz and a maximal shear rate of 0.1 per second. The pin is suspended by a torsion wire that acts as a torque transducer. […] The torque experienced by the pin (relative to the cup's oscillation) is plotted as a function of time. The amplitude on the TEG tracing is a measure of the rigidity of the clot; the peak strength or the shear elastic modulus attained by the clot, G, is a function of clot rigidity and can be calculated from the maximal amplitude (MA) of the TEG tracing.
The following parameters were measured from the TEG tracing (FIG. 5):
R, the reaction time (gelation time) represents the latent period before the establishment of a 3-dimensional fibrin gel network (with measurable rigidity of amplitude=2 mm).
Maximum Amplitude (MA, in mm) is the peak rigidity manifested by the clot.
Shear elastic modulus or clot strength (G, dynes/cm^2) is defined by: G=(5000* MA)/(96-MA) for computerized TEG. […]
To assess the effect of the TF modification on peak clot strength (G) was measured with and without the addition of TF in paired samples of WB and PRP. To document the contribution of activated platelets to the elastic modulus of fibrin clots, the effect of platelet number was measured by serially diluting PRP with PPP. The platelet count of each dilution was measured before performing TEG. […] The Thrombelastograph maximum amplitude (MA) for platelets MA (PLT)) was calculated by subtracting the MA from a platelet-poor plasma (PPP) sample MA (PPP) determined in one thromboelastography well from that of whole blood MA (WB) run simultaneously in the second thromboelastography well.

Setting [3] is: rat, TPA 1, sibrafiban 0.3, compound B 0.3 mg/kg i.v., given 5 min after preformed clot, free acids used.

Take tissue plasminogen activator [TPA]: the Incidence of reocclusion in the assay with preformed clot (rat, TPA 1, sibrafiban 0.3, compound B 0.3 mg/kg i.v., given 5 min after preformed clot, animals reoccluded/total) is recorded as 15/17. In the assay with preformed clot (setting [3]), the Duration of patency amounted to 29 ± 2% and the Time to reperfusion is on record as 32 ± 6 min.

Take `CS(=O)(=O)O.Cc1noc(C)c1S(=O)(=O)N[C@@H](CNC(=O)C[C@H]1CC(c2ccc(C(=N)N)cc2)=NO1)C(=O)O` [Compound (A)]: the “effect on occlusion of the artery / carotid blood flow” value in assay [1] is “did not prevent the occlusion of the artery; also recorded: not effective”.

Take `CC(=O)O.CCCCOC(=O)N[C@@H](CNC(=O)C[C@H]1CC(c2ccc(C(=N)N)cc2)=NO1)C(=O)OC` [Compound B, roxifiban]: the “enhancement of clot strength by platelets” value in assay [2] is given as “inhibited”.

As for `CC(=O)O.CCCCOC(=O)N[C@@H](CNC(=O)C[C@H]1CC(c2ccc(C(=N)N)cc2)=NO1)C(=O)OC` (stereo in doubt) [Compound B, roxifiban], the “effectiveness in preventing thrombosis in this rat model” value with preformed clot is “equal effective”.

Consider TFPI: Tissue factor pathway inhibitor, for which, in assay [2] (LPS 6.25 μg, human whole blood, mean ± SEM), the “IC50, clot formation (clot retraction) induced by LPS” value amounted to 0.09 ± 0.01 µg/mL.

For `CC(=O)Oc1ccccc1C(=O)O` [Aspirin, aspirin, reference compound], in assay [1], the “effect on occlusion of the artery / carotid blood flow” value was “did not prevent the occlusion of the artery”.

For `CCOC(=O)COC1CCN(C(=O)[C@H](C)NC(=O)c2ccc(C(=N)NO)cc2)CC1` [sibrafiban, reference compound], the “effectiveness in preventing thrombosis in this rat model” value with preformed clot is reported as “equal effective”.

B1: Abciximab: c7E3 Fab (Abciximab, Centocor), platelet GPIIb/IIIa antagonist (antibody, chains of the INN, looked up, V domains shown)
VH: EVQLQQSGTVLARPGASVKMSCEASGYTFTNYWMHWVKQRPGQGLEWIGAIYPGNSDTSYIQKFKGKAKLTAVTSTTSVYMELSSLTNEDSAVYYCTLYDGYYVFAYWGQGTLVTVSA
VL: EIVLTQSPVTLSVTPGDSVSLSCRASRDISNNLHWFQQTSHESPRLLIKYASQSMSGIPSRFSGSGSGTDFTLSINSVETEDFGMYFCQQTNSWPYTFGGGTKLEIK
modifications: Fab
notes: c7E3 Fab (Abciximab, Centocor), platelet GPIIb/IIIa antagonist
As to B1, the “enhancement of clot strength by platelets” value in assay [2] was “inhibited”.

The record behind these values is US6346517B1, “Synergy between low molecular weight heparin and platelet aggregation inhibitors, providing a combination therapy for the prevention and treatment of various thromboembolic disorders” (Bristol-Myers Squibb Pharma Company, priority 1999, dated 2002).
